Measured values taken from publication PMC6328587 (Nature Communications, 2019).
Like-named read-outs stand apart in the source and are kept apart here.

Key:
endogenous p38δ = target: T1, endogenous p38δ (Homo sapiens, UniProt O15264+P40337); assay: Ternary complex pull-down from MDA-MB-231 whole-cell lysate; assay type: binding
T1 construct: endogenous in cells; host or cells: MDA-MB-231 whole-cell lysate (p38δ); GST-VBC bait made in E. coli
Experimental: Glutathione Sepharose 4B (Glutathione-conjugated beads in a slurry containing 20% ethanol) were washed twice with 1X wash buffer (50 mM HEPES pH 7.5, 150 mM NaCl, 1 mM DTT, 0.01% NP40, 5 mM MgCl2, 10% Glycerol) and then blocked for 1 h at room temperature with 10% bovine serum albumin (BSA) in wash buffer. The beads were then washed again three times with wash buffer and then purified GST-VBC (stable form of VHL complexed with EloB/EloC, described above) was immobilized for 1 h at 4 °C at 3.6 pmole µL^–1 of beads. The beads were then washed three times with wash buffer, resuspended, divided into two equal volumes, and p38α or p38δ protein was added. The bead:p38 mixture was then aliquoted to separate tubes and PROTAC was added at the indicated concentration (PROTACs were intermediately diluted in 10% DMSO and 0.25% CHAPS). This mixture was incubated at 4 °C for 2 h. The beads were washed three times with 10 column volumes of wash buffer and then eluted with SDS loading buffer at 75 °C for 10 min.
For experiments in which the input substrate is a WCL (Fig. 4b), the sample was prepared as follows. Five 150 mm dishes of confluent MDA-MB-231 cells were washed with 1X PBS, pH 7.4, and then dissociated using enzyme-free PBS-based cell dissociation buffer (ThermoFisher Scientific) for 10 min at 37 °C. […]

p38δ = target: T2, p38δ (Homo sapiens, UniProt O15264); assay: PROTAC-induced p38δ degradation, western blot in MDA-MB-231 cells; assay type: cell-based
T2 construct: endogenous in cells; host or cells: MDA-MB-231
T2 sequence (O15264 1-365): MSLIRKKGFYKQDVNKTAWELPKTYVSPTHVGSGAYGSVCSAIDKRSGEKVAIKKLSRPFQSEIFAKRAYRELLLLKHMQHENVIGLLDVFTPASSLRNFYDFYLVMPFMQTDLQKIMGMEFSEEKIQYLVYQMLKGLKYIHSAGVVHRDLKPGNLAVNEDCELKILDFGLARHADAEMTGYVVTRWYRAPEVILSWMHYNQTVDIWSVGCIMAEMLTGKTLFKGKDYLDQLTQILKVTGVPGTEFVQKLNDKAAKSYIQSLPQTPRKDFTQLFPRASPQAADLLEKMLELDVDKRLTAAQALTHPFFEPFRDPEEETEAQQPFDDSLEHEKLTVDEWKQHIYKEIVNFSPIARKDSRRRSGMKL
Experimental: MDA-MB-231 and HeLa cells were obtained from the American Type Culture Collection (ATCC), cultured in RPMI-1640 medium (1 × ) and Dulbecco’s modified Eagle’s medium (DMEM; 1 × ), respectively, containing 10% fetal bovine serum and 1% penicillin–streptomycin and grown in a humidified incubator at 37 °C and 5% CO2.
[…] once with ice-cold PBS (1 × ), followed by lysis in buffer containing 25 mM Tris [pH 7.5], 0.25% sodium deoxycholate, 1% Triton X-100, supplemented with 1X protease inhibitor cocktail (Roche), and phosphatase inhibitors (10 mM NaF, 1 mM Na3VO4, and 20 mM β-glycerophosphate), unless otherwise noted. Lysates were spun at 14,000 × g for 10 min at 4 °C and supernatant was evaluated for protein content using a Pierce BCA Protein Assay (ThermoFisher Scientific). In all experiments, 25–50 μg of protein was loaded onto 10% SDS-PAGE gels or 4–20% Criterion TGX precast gradient gels (Bio-Rad), transferred to nitrocellulose membranes, and probed with the specified antibodies overnight at 4 °C in 1X TBS-Tween (Tris-buffered saline plus 0.02% Tween 20) containing 5% non-fat milk. Immunoblots were visualized using a Bio-Rad ChemiDoc imaging instrument and subsequently processed and quantified using the accompanying Bio-Rad ImageLab software. See Supplementary Figure 8 for uncropped scans of western blots shown in the main text figures.
Western blot data in Figs. 2, 6, and Supplementary Figures 2, 3 were quantified by using the band feature in Image Lab (Bio-Rad). The p38 values were normalized to the α-tubulin signal to account for differences in protein load, and PROTAC-treated normalized values were expressed as a % of the vehicle-treated (no PROTAC) value, which itself was defined as 100% p38 protein level. […] The sigmoidal fit established both the full extent of degradation, or Dmax at the bottom asymptote of the curve, as well as the DC50, which is the inflection point at which 50% of the total degradation observed was reached.

[1] = 0.025-5.0 µM survey, biological duplicates, ± one s.d., Supplementary Table 1
[2] = 0.025-5.0 µM survey, ± one s.d., Supplementary Table 1, read-out: Dmax p38δ (maximum percentage of degradation)
[3] = wider dose response 1 nM-100 µM, Supplementary Figure 3, read-out: Dmax p38δ

T1 sequence (P40337 whole entry, one chain of several): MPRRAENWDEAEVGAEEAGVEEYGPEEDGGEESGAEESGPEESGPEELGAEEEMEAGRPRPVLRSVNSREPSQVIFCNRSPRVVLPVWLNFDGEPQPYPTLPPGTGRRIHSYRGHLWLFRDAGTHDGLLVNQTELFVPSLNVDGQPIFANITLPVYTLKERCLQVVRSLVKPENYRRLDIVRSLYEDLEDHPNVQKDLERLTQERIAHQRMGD
T1 sequence (Q15370 whole entry partner, one chain of several): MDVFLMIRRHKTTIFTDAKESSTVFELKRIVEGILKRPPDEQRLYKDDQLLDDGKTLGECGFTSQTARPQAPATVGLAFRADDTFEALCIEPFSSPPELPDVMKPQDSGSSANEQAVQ
T1 sequence (Q15369 whole entry partner, one chain of several): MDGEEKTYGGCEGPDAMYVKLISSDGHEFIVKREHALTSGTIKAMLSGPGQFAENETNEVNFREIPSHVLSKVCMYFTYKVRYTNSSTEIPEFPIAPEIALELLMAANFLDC

SMILES: COc1cc2c(Oc3ccc(NC(=O)C4(C(=O)Nc5ccc(F)cc5)CC4)cc3F)ccnc2cc1OCCOCCOCCOc1cc(-c2scnc2C)ccc1CNC(=O)[C@@H]1C[C@@H](O)CN1C(=O)[C@H](C(C)C)N1Cc2ccccc2C1=O [SJFδ]
- enrichment of endogenous p38δ on GST-VBC bait (endogenous p38δ): strongly enriches for endogenous p38δ
- p38δ downregulation after pre-treatment with 1 µM epoxomicin or 1 µM MLN4924 (p38δ; 250 nM PROTAC, 6 h): completely rescued
- DC50 (p38δ; [1]): 79.2 ± 28 nM
- Dmax (p38δ; [2]): 98.4 ± 6.6%
- hook effect in p38δ degradation (p38δ; up to 100 µM): no hook effect
- DC50 (p38δ; wider dose response 1 nM-100 µM, Supplementary Figure 3): 46.2 ± 9.85 nM
- Dmax (p38δ; [3]): 99.4 ± 3.31%

SMILES: COc1cc2c(Oc3ccc(NC(=O)C4(C(=O)Nc5ccc(F)cc5)CC4)cc3F)ccnc2cc1OCCCCOCCCCOCC(=O)N[C@H](C(=O)N1C[C@H](O)C[C@H]1C(=O)NCc1ccc(-c2scnc2C)cc1)C(C)(C)C [SJFα]
- enrichment of endogenous p38δ on GST-VBC bait (endogenous p38δ): stable ternary complex formation was greatly reduced
- DC50 (p38δ; [1]): 1160 ± 2470 nM
- Dmax (p38δ; [2]): 25.1 ± 22.7%
- Dmax (p38δ; [3]): 18%
